Measured values reported in patent publication US20230340498A1, “COMPOSITIONS AND METHODS FOR INDUCIBLE ALTERNATIVE SPLICING REGULATION OF GENE EXPRESSION” (The Children's Hospital of Philadelphia, priority 2020, published 2023).

System: SMN2-on minigene
Test: SMN2-on cassette Firefly luciferase reporter assay in transfected HEK293 cells
Format: cell-based, Human
Settings: HEK293 cells, varying doses
Description: Cell culture, transfection, and LMI070/RG7800 treatment. Human embryonic kidney (HEK293) cells (obtained from CHOP Research Vector Core stock) were maintained in DMEM media containing 10% Fetal Bovine Serum (FBS), 1% L-Glutamine and 1% penicillin/streptomycin at 37° C. with 5% CO2. Cells were cultured in 24 well plates and transfected at 80-90% confluence using Lipofectamine 2000 transfection reagent, according to the manufacturer’s protocol. For all experiments, 4 hours after plasmid transfection, cells were treated with LMI070 (MedChemExpress, HY-19620, suspended in DMSO) or RG7800 (MedChemExpress, HY-101792A, suspended in H2O) at the indicated concentrations. Cells were tested for mycoplasma by Research Vector Core. None of the cells used in the study were listed in ICLAC database of commonly misidentified cell lines.
In vitro luciferase assays. HEK293 cells were cultured in DMEM (10% FBS (v/v), 1% Pen/ Strep (v/v), and 1% L-glutamine (v/v) in a 24-well plate. At 70%-80% confluence, cells were co-transfected with the Xon.Firefly luciferase cassettes (0.3 µg/well) and a SV40p-Renilla luciferase cassette as transfection control (0.02 µg/well). Four hours after transfections cells were treated either with LMI070 or RG7800 at indicated concentrations. At 24 h after transfection, cells were rinsed with ice-cold PBS and Renilla and Firefly luciferase activities were assessed using the Dual-Luciferase Reporter Assay System (Promega) according to the manufacturer’s instructions. Luminescent readouts were obtained with a Monolight 3010 luminometer (Pharmigen). Relative light units (RLUs) were calculated as the quotient of […] RLUs and results expressed relative to mock treated control cells.
For this, SMN2-on cassettes were generated to provide drug-induced reporter gene expression. HEK293 cells were transfected with the SMN2-on expression cassettes and luciferase activity evaluated in response to varying doses of LMI070 or RG7800. […]

**Q.** For CCc1nc(C)cn2nc(-c3cc(=O)n4cc(C5CCN(C)CC5)cc(C)c4n3)cc12 [RG7800], which “luciferase activity from the SMN2-on minigene” value is on record?
**A.** Its value is “induced luciferase activity”.
